# Species on record: Rattus norvegicus
# Assay: DrugMatrix - Regimen: Daily Repeat
# Format: toxicity, organism-based, Sprague-Dawley
# Design: regimen Daily Repeat, gender Male, age 6-8 weeks
# Details: in vivo, po, route oral GAVAGE, vehicle .5 % CMC; for BASOPHIL / EOSINOPHIL / ERYTHROCYTE COUNT / HEMATOCRIT / HEMOGLOBIN / LEUKOCYTE COUNT / LYMPHOCYTE / MEAN CORPUSCULAR HEMOGLOBIN / MEAN CORPUSCULAR HEMOGLOBIN CONCENTRATION / MEAN CORPUSCULAR VOLUME / MONOCYTE / NEUTROPHIL / PLATELET COUNT: tissue Blood; for ALANINE AMINOTRANSFERASE / ALBUMIN / ALKALINE PHOSPHATASE / ASPARTATE AMINOTRANSFERASE / BLOOD UREA NITROGEN / CHLORIDE / CHOLESTEROL / CREATINE PHOSPHOKINASE / CREATININE / GLUCOSE / PHOSPHORUS / POTASSIUM / SODIUM / TOTAL BILIRUBIN / TOTAL PROTEIN: tissue Plasma
# [1] = 0 mg/kg, 72 h, dose level Control, time 3 day
# [2] = 0 mg/kg, 120 h, dose level Control, time 5 day
# [3] = 3 mg/kg, 72 h, dose level Low, time 3 day
# [4] = 3 mg/kg, 120 h, dose level Low, time 5 day
structure (smiles),measurement,setting,value
O=C1CCC(N2C(=O)c3ccccc3C2=O)C(=O)N1 (configuration not stated) [THALIDOMIDE],BASOPHIL,[1],1.52%
same,EOSINOPHIL,[1],0.98%
same,ERYTHROCYTE COUNT,[1],6.96 x10E6/uL
same,HEMATOCRIT,[1],44.65%
same,HEMOGLOBIN,[1],13.62 G/DL
same,LEUKOCYTE COUNT,[1],9.83 x10E3/uL
same,LYMPHOCYTE,[1],76.48%
same,MEAN CORPUSCULAR HEMOGLOBIN,[1],19.57 pg
same,MEAN CORPUSCULAR HEMOGLOBIN CONCENTRATION,[1],30.47 G/DL
same,MEAN CORPUSCULAR VOLUME,[1],64.22 fL
same,MONOCYTE,[1],2.13%
same,NEUTROPHIL,[1],18.6%
same,PLATELET COUNT,[1],1217.17 x10E3/uL
same,ALANINE AMINOTRANSFERASE,[1],41 u/L
same,ALBUMIN,[1],3.77 G/DL
same,ALKALINE PHOSPHATASE,[1],411.83 u/L
same,ASPARTATE AMINOTRANSFERASE,[1],62.83 u/L
same,BLOOD UREA NITROGEN,[1],15.17 mg/dL
same,CHLORIDE,[1],104.33 MEQ/L
same,CHOLESTEROL,[1],71.17 mg/dL
same,CREATINE PHOSPHOKINASE,[1],123.5 u/L
same,CREATININE,[1],0.55 mg/dL
same,GLUCOSE,[1],182.67 mg/dL
same,PHOSPHORUS,[1],11.23 mg/dL
same,POTASSIUM,[1],7.03 MEQ/L
same,SODIUM,[1],148 MEQ/L
same,TOTAL BILIRUBIN,[1],0.57 mg/dL
same,TOTAL PROTEIN,[1],6.85 G/DL
same,BASOPHIL,[2],1.35%
same,EOSINOPHIL,[2],0.43%
same,ERYTHROCYTE COUNT,[2],6.96 x10E6/uL
same,HEMATOCRIT,[2],44.35%
same,HEMOGLOBIN,[2],13.98 G/DL
same,LEUKOCYTE COUNT,[2],9.45 x10E3/uL
same,LYMPHOCYTE,[2],80.83%
same,MEAN CORPUSCULAR HEMOGLOBIN,[2],20.1 pg
same,MEAN CORPUSCULAR HEMOGLOBIN CONCENTRATION,[2],31.52 G/DL
same,MEAN CORPUSCULAR VOLUME,[2],63.72 fL
same,MONOCYTE,[2],2.37%
same,NEUTROPHIL,[2],14.05%
same,PLATELET COUNT,[2],1298 x10E3/uL
same,ALANINE AMINOTRANSFERASE,[2],42.17 u/L
same,ALBUMIN,[2],3.77 G/DL
same,ALKALINE PHOSPHATASE,[2],419 u/L
same,ASPARTATE AMINOTRANSFERASE,[2],66.67 u/L
same,BLOOD UREA NITROGEN,[2],16.67 mg/dL
same,CHLORIDE,[2],103.17 MEQ/L
same,CHOLESTEROL,[2],66.33 mg/dL
same,CREATINE PHOSPHOKINASE,[2],148.33 u/L
same,CREATININE,[2],0.58 mg/dL
same,GLUCOSE,[2],196.83 mg/dL
same,PHOSPHORUS,[2],11.8 mg/dL
same,POTASSIUM,[2],6.47 MEQ/L
same,SODIUM,[2],148.33 MEQ/L
same,TOTAL BILIRUBIN,[2],0.53 mg/dL
same,TOTAL PROTEIN,[2],6.77 G/DL
same,BASOPHIL,[3],1.53%
same,EOSINOPHIL,[3],0.27%
same,ERYTHROCYTE COUNT,[3],6.9 x10E6/uL
same,HEMATOCRIT,[3],43.27%
same,HEMOGLOBIN,[3],13.43 G/DL
same,LEUKOCYTE COUNT,[3],12.1 x10E3/uL
same,LYMPHOCYTE,[3],84.1%
same,MEAN CORPUSCULAR HEMOGLOBIN,[3],19.47 pg
same,MEAN CORPUSCULAR HEMOGLOBIN CONCENTRATION,[3],31.03 G/DL
same,MEAN CORPUSCULAR VOLUME,[3],62.73 fL
same,MONOCYTE,[3],2.13%
same,NEUTROPHIL,[3],11.37%
same,PLATELET COUNT,[3],1452.67 x10E3/uL
same,ALANINE AMINOTRANSFERASE,[3],33 u/L
same,ALBUMIN,[3],3.63 G/DL
same,ALKALINE PHOSPHATASE,[3],276 u/L
same,ASPARTATE AMINOTRANSFERASE,[3],53.33 u/L
same,BLOOD UREA NITROGEN,[3],11 mg/dL
same,CHLORIDE,[3],103 MEQ/L
same,CHOLESTEROL,[3],57.67 mg/dL
same,CREATINE PHOSPHOKINASE,[3],135.33 u/L
same,CREATININE,[3],0.5 mg/dL
same,GLUCOSE,[3],177.33 mg/dL
same,PHOSPHORUS,[3],12.77 mg/dL
same,POTASSIUM,[3],6.87 MEQ/L
same,SODIUM,[3],148.67 MEQ/L
same,TOTAL BILIRUBIN,[3],0.33 mg/dL
same,TOTAL PROTEIN,[3],6.27 G/DL
same,BASOPHIL,[4],2.03%
same,EOSINOPHIL,[4],0.3%
same,ERYTHROCYTE COUNT,[4],6.85 x10E6/uL
same,HEMATOCRIT,[4],42.57%
same,HEMOGLOBIN,[4],13.47 G/DL
same,LEUKOCYTE COUNT,[4],11.43 x10E3/uL
same,LYMPHOCYTE,[4],80.43%
same,MEAN CORPUSCULAR HEMOGLOBIN,[4],19.63 pg
same,MEAN CORPUSCULAR HEMOGLOBIN CONCENTRATION,[4],31.7 G/DL
same,MEAN CORPUSCULAR VOLUME,[4],62.13 fL
same,MONOCYTE,[4],3.03%
same,NEUTROPHIL,[4],13.67%
same,PLATELET COUNT,[4],1535.33 x10E3/uL
same,ALANINE AMINOTRANSFERASE,[4],37 u/L
same,ALBUMIN,[4],3.47 G/DL
same,ALKALINE PHOSPHATASE,[4],320 u/L
same,ASPARTATE AMINOTRANSFERASE,[4],57 u/L
same,BLOOD UREA NITROGEN,[4],12 mg/dL
same,CHLORIDE,[4],102.67 MEQ/L
same,CHOLESTEROL,[4],62.33 mg/dL
same,CREATINE PHOSPHOKINASE,[4],138 u/L
same,CREATININE,[4],0.5 mg/dL
same,GLUCOSE,[4],187.67 mg/dL
same,PHOSPHORUS,[4],11.93 mg/dL
same,POTASSIUM,[4],6.03 MEQ/L
same,SODIUM,[4],146.33 MEQ/L
same,TOTAL BILIRUBIN,[4],0.3 mg/dL
same,TOTAL PROTEIN,[4],6.13 G/DL
